Measured values from article doi:10.1101/2022.11.14.516475v2 (biorxiv, 2022).
Each block holds one compound with its values, some of them ahead of it.

Legend:
[1] = target: T1, SNAP-tagged human D2SR (SNAP-D2RS) (Homo sapiens, UniProt P14416); experiment: TR-FRET association kinetics; type: binding; details: labelled compound; read-out: Kd (koff / kon)
T1 construct: gene DRD2

D2 [2] = target: T2, D2 (Homo sapiens, UniProt P14416); experiment: biochemical; design: gene DRD2; PDSP radioligand binding competition, single concentration, % inhibition of specific binding; details: read-out: ML321 (10 µM) % Inhibition
[3] = target: T3, 5-HT2C serotonin receptor (Homo sapiens, UniProt P28335); experiment: PDSP radioligand binding competition; details: read-out: % inhibition at 10 μM
T3 construct: gene HTR2C
T3 sequence (P28335 33-458): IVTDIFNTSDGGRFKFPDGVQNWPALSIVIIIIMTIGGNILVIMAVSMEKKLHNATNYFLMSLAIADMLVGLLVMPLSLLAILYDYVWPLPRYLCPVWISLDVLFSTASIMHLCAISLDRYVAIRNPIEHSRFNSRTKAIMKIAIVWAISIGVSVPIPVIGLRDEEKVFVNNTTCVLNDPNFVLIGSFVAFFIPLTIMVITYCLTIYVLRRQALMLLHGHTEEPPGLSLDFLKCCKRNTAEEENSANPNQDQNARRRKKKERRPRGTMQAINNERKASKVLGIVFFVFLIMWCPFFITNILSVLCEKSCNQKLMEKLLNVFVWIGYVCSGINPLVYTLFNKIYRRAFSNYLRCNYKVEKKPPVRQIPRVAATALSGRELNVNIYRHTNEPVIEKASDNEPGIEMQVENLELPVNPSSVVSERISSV

D3 = target: T4, D3 (Homo sapiens, UniProt P35462); experiment: biochemical; design: PDSP radioligand binding competition, single concentration, % inhibition of specific binding; details: read-out: ML321 (10 µM) % Inhibition
T4 construct: gene DRD3
Procedure: ML321 was screened using the National Institute of Mental Health Psychoactive Drug Screening Program (PDSP) directed by Dr. Bryan L. Roth (University of North Carolina, Chapel Hill, NC). For experimental details including radioligands used and associated Kd values for each individual target, please refer to the PDSP website http://pdsp.med.unc.edu/. […] Assays were performed in triplicate. To further assess ML321 selectivity amongst a larger group of drug targets, we used the NIMH Psychoactive Drug Screening Program (PDSP), which utilizes radioligand binding competition assays for 46 unique GPCRs, transporters and ion channels. For screening, a single high concentration (10 µM) of ML321 was used to compete for radioligand binding to the PDSP targets (Figure 1C).

[4] = target: T1, SNAP-tagged human D2SR (SNAP-D2RS); experiment: biochemical; type: CHO cell membranes; design: TR-FRET competition kinetic binding with PPHT-red, Motulsky-Mahan fit; details: read-out: koff (min^-1)
[5] = target: T5, 5-HT2A serotonin receptor (Homo sapiens, UniProt P28223); experiment: DiscoverX gpcrMAX beta-arrestin recruitment, antagonist mode; type: cell-based; details: read-out: % inhibition at 10 μM
T5 construct: gene HTR2A; DiscoverX gpcrMAX PathHunter beta-arrestin cell line, enzyme-fragment tagged receptor

hERG K+ channel = target: T6, hERG K+ channel (Homo sapiens, UniProt Q12809); experiment: automated whole-cell patch clamp, HEK293, tail current; type: cell-based; details: hek293 cells
T6 construct: gene KCNH2; expressed in HEK293 cells (Cyprotex), automated patch clamp

5-HT7 serotonin receptor = target: T7, 5-HT7 serotonin receptor (Homo sapiens, UniProt P34969); experiment: PDSP radioligand binding competition; details: read-out: % inhibition at 10 μM
T7 construct: gene HTR7

D2 [6] = target: T2, D2; type: cell-based; design: gene DRD2; full length; pcDNA3.1 mutants); DiscoverX beta-galactosidase fragment fusion for beta-arrestin assay; details: agonist
D2 [7] = target: T2, D2; type: binding; design: gene DRD2; full length; pcDNA3.1 mutants); DiscoverX beta-galactosidase fragment fusion for beta-arrestin assay; details: wild-type control

T2 sequence (P14416 whole entry): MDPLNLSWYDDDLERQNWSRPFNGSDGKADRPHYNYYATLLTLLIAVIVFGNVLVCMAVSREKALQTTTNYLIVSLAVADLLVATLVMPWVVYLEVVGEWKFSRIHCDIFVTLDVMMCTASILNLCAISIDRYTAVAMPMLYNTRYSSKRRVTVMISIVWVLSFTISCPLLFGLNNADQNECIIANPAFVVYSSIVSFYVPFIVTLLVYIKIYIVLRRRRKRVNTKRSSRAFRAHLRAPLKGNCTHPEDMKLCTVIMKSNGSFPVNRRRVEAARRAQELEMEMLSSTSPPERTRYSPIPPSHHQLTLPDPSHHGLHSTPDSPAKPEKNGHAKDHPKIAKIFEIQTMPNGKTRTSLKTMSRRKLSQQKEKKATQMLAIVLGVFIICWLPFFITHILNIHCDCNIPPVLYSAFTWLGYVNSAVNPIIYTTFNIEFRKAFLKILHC
T1 sequence (P14416 1-414 isoform P14416-2): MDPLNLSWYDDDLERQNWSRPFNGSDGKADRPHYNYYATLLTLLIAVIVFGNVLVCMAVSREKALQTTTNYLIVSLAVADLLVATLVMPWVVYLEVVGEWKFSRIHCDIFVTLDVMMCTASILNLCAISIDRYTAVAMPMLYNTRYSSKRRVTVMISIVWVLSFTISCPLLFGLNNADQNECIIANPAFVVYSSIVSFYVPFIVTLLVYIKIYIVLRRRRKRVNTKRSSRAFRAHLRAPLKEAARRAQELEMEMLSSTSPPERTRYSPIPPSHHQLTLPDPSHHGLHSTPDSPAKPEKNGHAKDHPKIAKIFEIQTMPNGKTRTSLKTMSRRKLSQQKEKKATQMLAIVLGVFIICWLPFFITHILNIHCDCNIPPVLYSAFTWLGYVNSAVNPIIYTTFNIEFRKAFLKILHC
T5 sequence (P28223 whole entry, the tested form may be a part): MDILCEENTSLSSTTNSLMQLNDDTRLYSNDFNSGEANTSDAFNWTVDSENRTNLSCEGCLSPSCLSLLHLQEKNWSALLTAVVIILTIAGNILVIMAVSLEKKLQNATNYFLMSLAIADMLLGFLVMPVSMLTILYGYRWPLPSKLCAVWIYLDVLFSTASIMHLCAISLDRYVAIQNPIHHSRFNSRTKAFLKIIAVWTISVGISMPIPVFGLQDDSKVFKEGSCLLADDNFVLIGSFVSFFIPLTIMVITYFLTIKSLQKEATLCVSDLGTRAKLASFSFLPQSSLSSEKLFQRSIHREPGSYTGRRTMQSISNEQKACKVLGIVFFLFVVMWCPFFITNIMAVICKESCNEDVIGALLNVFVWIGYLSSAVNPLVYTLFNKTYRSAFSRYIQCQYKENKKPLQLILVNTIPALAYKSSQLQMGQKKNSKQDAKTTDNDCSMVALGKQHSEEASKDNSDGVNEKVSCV
T6 sequence (Q12809 whole entry): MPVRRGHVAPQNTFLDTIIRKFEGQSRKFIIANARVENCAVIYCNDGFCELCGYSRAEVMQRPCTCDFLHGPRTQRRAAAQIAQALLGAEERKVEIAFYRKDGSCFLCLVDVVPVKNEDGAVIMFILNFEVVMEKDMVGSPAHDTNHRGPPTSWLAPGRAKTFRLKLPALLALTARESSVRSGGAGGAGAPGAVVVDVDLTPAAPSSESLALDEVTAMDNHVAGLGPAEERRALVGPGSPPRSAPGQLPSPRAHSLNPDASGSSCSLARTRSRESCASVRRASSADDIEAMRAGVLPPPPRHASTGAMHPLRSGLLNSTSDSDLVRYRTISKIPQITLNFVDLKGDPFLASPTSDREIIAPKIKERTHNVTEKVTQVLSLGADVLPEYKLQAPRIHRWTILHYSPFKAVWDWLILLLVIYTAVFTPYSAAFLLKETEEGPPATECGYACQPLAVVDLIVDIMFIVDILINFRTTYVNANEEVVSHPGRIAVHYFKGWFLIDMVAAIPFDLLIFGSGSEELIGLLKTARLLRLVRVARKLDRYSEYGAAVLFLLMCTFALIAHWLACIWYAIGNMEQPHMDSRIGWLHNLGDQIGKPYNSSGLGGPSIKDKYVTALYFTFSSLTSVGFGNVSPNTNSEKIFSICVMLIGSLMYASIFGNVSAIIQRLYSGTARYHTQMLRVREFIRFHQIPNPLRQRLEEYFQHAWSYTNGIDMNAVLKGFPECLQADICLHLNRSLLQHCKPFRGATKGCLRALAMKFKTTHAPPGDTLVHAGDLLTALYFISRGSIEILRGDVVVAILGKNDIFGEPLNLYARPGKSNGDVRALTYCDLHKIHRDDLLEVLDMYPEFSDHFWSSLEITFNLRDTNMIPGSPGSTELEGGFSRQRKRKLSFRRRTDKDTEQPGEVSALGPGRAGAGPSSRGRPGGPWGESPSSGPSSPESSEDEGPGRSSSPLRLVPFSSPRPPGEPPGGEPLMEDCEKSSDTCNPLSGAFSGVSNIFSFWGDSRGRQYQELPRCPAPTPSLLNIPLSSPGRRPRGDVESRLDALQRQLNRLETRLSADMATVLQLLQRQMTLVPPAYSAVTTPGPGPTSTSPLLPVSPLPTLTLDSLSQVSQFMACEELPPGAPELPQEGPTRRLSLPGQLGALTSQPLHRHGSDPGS
T7 sequence (P34969 whole entry): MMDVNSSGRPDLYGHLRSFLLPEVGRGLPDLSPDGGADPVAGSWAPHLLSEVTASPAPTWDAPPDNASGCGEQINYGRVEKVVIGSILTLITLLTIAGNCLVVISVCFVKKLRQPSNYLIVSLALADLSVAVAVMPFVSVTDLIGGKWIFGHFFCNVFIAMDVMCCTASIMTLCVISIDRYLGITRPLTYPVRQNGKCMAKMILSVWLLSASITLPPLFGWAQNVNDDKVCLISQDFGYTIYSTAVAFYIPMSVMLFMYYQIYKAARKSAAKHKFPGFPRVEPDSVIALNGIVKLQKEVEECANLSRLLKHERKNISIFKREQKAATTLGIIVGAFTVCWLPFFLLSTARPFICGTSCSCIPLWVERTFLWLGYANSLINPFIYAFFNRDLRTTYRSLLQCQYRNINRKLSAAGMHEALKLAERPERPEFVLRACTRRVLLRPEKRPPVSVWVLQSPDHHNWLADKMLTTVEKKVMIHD
T4 sequence (P35462 whole entry): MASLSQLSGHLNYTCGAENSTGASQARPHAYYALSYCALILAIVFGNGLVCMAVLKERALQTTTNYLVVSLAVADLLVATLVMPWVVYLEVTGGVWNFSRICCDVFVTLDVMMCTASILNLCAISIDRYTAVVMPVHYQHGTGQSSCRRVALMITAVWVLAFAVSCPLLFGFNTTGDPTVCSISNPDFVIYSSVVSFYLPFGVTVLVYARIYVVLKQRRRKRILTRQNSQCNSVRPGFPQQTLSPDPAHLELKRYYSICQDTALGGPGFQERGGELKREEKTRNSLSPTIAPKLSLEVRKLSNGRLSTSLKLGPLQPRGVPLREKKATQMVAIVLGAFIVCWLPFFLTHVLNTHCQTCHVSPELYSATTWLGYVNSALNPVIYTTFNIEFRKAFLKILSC

- Kd [1]: 11.5 ± 0.16 nM
Compound: PPHT-red

- inhibition at 10 µM (D2 [2]): 92%
- inhibition at 10 µM [3]: 64%
- inhibition at 10 µM (D3): 59%
- koff [4]: 1.3 min⁻¹
- inhibition at 10 µM [5]: 48%
- inhibition at 10 µM (5-HT7 serotonin receptor): 53%
Compound: CN1C(=O)c2ccccc2[S@+]([O-])c2ccc(C(=O)NCCc3cccs3)cc21 [ML321]
- IC50 (hERG K+ channel): > 25 µM

Compound: NCCc1ccc(O)c(O)c1 [dopamine]
- EC50 (D2 [6]): EC50 and IC50 values for dopamine and ML321, respectively, were determined

Compound: O=C(CCCN1CCC2(CC1)C(=O)NCN2c1ccccc1)c1ccc(F)cc1 [spiperone]
- Ki (D2 [7]): performed using both ML321 and unlabeled spiperone (as a control) with the wild-type
